Measurements: patent publication US20220033396A1, “FURTHER HETEROAROMATIC COMPOUNDS HAVING ACTIVITY AGAINST RSV” (priority 2018, published 2022)

Experiments:
in vitro = conditions: human
rgRSV224 virus = test: microbe, parasite or virus in culture; format: cell-based; conditions: human respiratory syncytial virus, 72 h; rgRSV224 virus (MOI=1), HeLa cells, GFP expression three days post-virus exposure; averaged data of several repeat experiments; read-out: RSV HELA EC50

SMILES | CC50 at 3 days (in vitro) | EC50 (rgRSV224 virus)
C[C@@H]1c2ccccc2CCN1C(=O)c1cc(C2CC2)c2nc(-c3ccc(N4CC(C(=O)NS(C)(=O)=O)C4)cc3F)cn2c1 [Compound 28, 1-(4-{8-Cyclopropyl-6-[(1R)-1-methyl-1,2,3,4-tetrahydroisoquinoline-2-carbonyl]imidazo[1,2-a]pyridin-2-yl}-3-fluorophenyl)-N-methanesulfonylazetidine-3-carboxamide] | > 100 µM | 3.11 µM
C[C@@H]1c2ccccc2CCN1C(=O)c1cc(C2CC2)c2nc(-c3ccc4c(c3F)C=C(C(=O)O)CO4)cn2c1 [Compound 29, (R)-6-(8-cyclopropyl-6-(1-methyl-1,2,3,4-tetrahydroisoquinoline-2-carbonyl)imidazo[1,2-a]pyridin-2-yl)-5-fluoro-2H-chromene-3-carboxylic Acid] | 49.5 µM | 0.146 µM
C[C@@H]1c2ccccc2CCN1C(=O)c1cc(C2CC2)c2nc(-c3ccc(NC(=O)N4CC(O)C4)cc3F)cn2c1 [Compound 30, (R)-N-(4-(8-cyclopropyl-6-(1-methyl-1,2,3,4-tetrahydroisoquinoline-2-carbonyl)imidazo[1,2-a]pyridin-2-yl)-3-fluorophenyl)-3-hydroxyazetidine-1-carboxamide] | 43.4 µM | 0.089 µM
C[C@@H]1c2ccccc2CCN1C(=O)c1cc(C2CC2)c2nc(-c3ccc(/C=C/C(=O)O)cc3F)cn2c1 [Compound 31, (R),(E)-3-(4-(8-cyclopropyl-6-(1-methyl-1,2,3,4-tetrahydroisoquinoline-2-carbonyl)imidazo[1,2-a]pyridin-2-yl)-3-fluorophenyl)acrylic acid] | 49.9 µM | 0.158 µM
C[C@@H]1c2ccccc2CCN1C(=O)c1cc(C2CC2)c2nc(-c3ccc([C@H]4C[C@@H]4C(=O)O)cc3F)cn2n1 [Compound 32, (1S,2 S)-2-(4-{8-Cyclopropyl-6-[(1R)-1-methyl-1,2,3,4-tetrahydroisoquinoline-2-carbonyl]imidazo[1,2-b]pyridazin-2-yl}-3-fluorophenyl)cyclopropane-1-carboxylic Acid] | 51.5 µM | 0.01 µM
C[C@@H]1CCCCCN1C(=O)c1cc(C2CC2)c2nc(-c3ccc([C@H]4C[C@@H]4C(=O)O)cc3F)cn2n1 [Compound 33, (1S,2S)-2-(4-{8-Cyclopropyl-6-[(2R)-2-methylazepane-1-carbonyl]imidazo[1,2-b]pyridazin-2-yl}-3-fluorophenyl)cyclopropane-1-carboxylic Acid] | 50.5 µM | 0.067 µM
CCc1cc(C(=O)N2CCc3ccccc3[C@H]2C)nn2cc(-c3ccc(N4C[C@H](O)[C@@H](O)C4)cc3F)nc12 [Compound 34, (2-(4-((3 S,4 S)-3,4-dihydroxypyrrolidin-1-yl)-2-fluorophenyl)-8-ethylimidazo[1,2-b]pyridazin-6-yl)((R)-1-methyl-3,4-dihydroisoquinolin-2(1H)-yl)methanone] | 24.5 µM | 0.012 µM
CCc1cc(C(=O)N2CCc3ccccc3[C@H]2C)nn2cc(-c3ccc(N4CC(O)C4)cc3F)nc12 [Compound 35, (R)-(8-ethyl-2-(2-fluoro-4-(3-hydroxyazetidin-1-yl)phenyl)imidazo[1,2-b]pyridazin-6-yl)(1-methyl-3,4-dihydroisoquinolin-2(1H)-yl)methanone] | 16.3 µM | 0.021 µM
CCc1cc(C(=O)N2CCc3ccccc3[C@H]2C)nn2cc(-c3ccc(/C=C/C(=O)O)cc3F)nc12 [Compound 36, (R,E)-3-(4-(8-ethyl-6-(1-methyl-1,2,3,4-tetrahydroisoquinoline-2-carbonyl)imidazo[1,2-b]pyridazin-2-yl)-3-fluorophenyl)acrylic Acid] | 17.2 µM | 0.039 µM
CCc1cc(C(=O)N(CC)C(C)C(C)C)nn2cc(-c3ccc(NC(=O)N4CC[C@@H](O)C4)cc3F)nc12 (stereo partly drawn) [Compound 42, N,8-diethyl-2-(2-fluoro-4-((R)-3-hydroxypyrrolidine-1-carboxamido)phenyl)-N-(3-methylbutan-2-yl)imidazo[1,2-b]pyridazine-6-carboxamide] | 46.8 µM | 5.55 µM
C[C@@H]1c2ccccc2CCN1C(=O)c1cc(-c2cccc(F)c2)c2nc(-c3ccc(NC(=O)N4CC[C@@H](O)C4)cc3F)cn2n1 [Compound 43, (R)-N-(3-fluoro-4-(8-(3-fluorophenyl)-6-((R)-1-methyl-1,2,3,4-tetrahydroisoquinoline-2-carbonyl)imidazo[1,2-b]pyridazin-2-yl)phenyl)-3-hydroxypyrrolidine-1-carboxamide] | > 100 µM | 0.022 µM
CCc1cc(C(=O)N2CCc3ccccc3[C@H]2C)nn2cc(-c3ccc4c(c3F)C=C(C(N)=O)CO4)nc12 [Compound 45, (R)-6-(8-ethyl-6-(1-methyl-1,2,3,4-tetrahydroisoquinoline-2-carbonyl)imidazo[1,2-b]pyridazin-2-yl)-5-fluoro-2H-chromene-3-carboxamide] | > 100 µM | 0.105 µM
CCc1cc(C(=O)N2CCc3ccccc3[C@H]2C)nn2cc(-c3ccc4c(c3F)OCC(C(N)=O)=C4)nc12 [Compound 46, (R)-7-(8-ethyl-6-(1-methyl-1,2,3,4-tetrahydroisoquinoline-2-carbonyl)imidazo[1,2-b]pyridazin-2-yl)-8-fluoro-2H-chromene-3-carboxamide] | > 100 µM | 0.054 µM
C[C@@H]1c2ccccc2CCN1C(=O)c1cn2cc(-c3ccc(NC(=O)N4CC[C@@H](O)C4)cc3F)nc2c(C2CC2)n1 [Compound 47, (R)-N-(4-(8-cyclopropyl-6-((R)-1-methyl-1,2,3,4-tetrahydroisoquinoline-2-carbonyl)imidazo[1,2-a]pyrazin-2-yl)-3-fluorophenyl)-3-hydroxypyrrolidine-1-carboxamide] | > 100 µM | 2.77 µM
C[C@@H]1c2ccccc2CCN1C(=O)c1cn2cc(-c3ccc(N4C[C@H](O)[C@@H](O)C4)cc3F)nc2c(C2CC2)n1 [Compound 48, (8-cyclopropyl-2-(4-((3 S,4 S)-3,4-dihydroxypyrrolidin-1-yl)-2-fluorophenyl)imidazo[1,2-a]pyrazin-6-yl)((R)-1-methyl-3,4-dihydroisoquinolin-2(1H)-yl)methanone] | 58.8 µM | 3.77 µM
C[C@@H]1c2ccccc2CCN1C(=O)c1cc(C2CC2)c2cc(-c3ccc(NC(=O)N4CC[C@@H](O)C4)cc3F)cn2n1 [Compound 49, (R)-N-(4-(4-cyclopropyl-2-((R)-1-methyl-1,2,3,4-tetrahydroisoquinoline-2-carbonyl)pyrrolo[1,2-b]pyridazin-6-yl)-3-fluorophenyl)-3-hydroxypyrrolidine-1-carboxamide] | 45.5 µM | 0.048 µM
C[C@@H]1c2ccccc2CCN1C(=O)c1cc(C2CC2)c2nc(-c3ccc(N4C[C@H](O)[C@@H](O)C4)cc3F)cn2n1 [Compound 51, (8-cyclopropyl-2-(4-((3 S,4 S)-3,4-dihydroxypyrrolidin-1-yl)-2-fluorophenyl)imidazo[1,2-b]pyridazin-6-yl)((R)-1-methyl-3,4-dihydroisoquinolin-2(1H)-yl)methanone] | 38 µM | 0.013 µM
